Measurements reported in PMC7006505, “Chemical biology tools for probing transcytosis at the blood–brain barrier” (Chemical Science, 2019).
Bridge positions count the residues as written; N and C are the ends. Square brackets hold non-standard residues; d marks the D form. Triazole bridges read from a SMILES are 1,4-linked. Ends that are not written are not given here. I, II: the chains in the order shown. * marks the point of attachment. 5FAM = O=C1OC2(c3ccc(O)cc3Oc3cc(O)ccc32)c2ccc(C(=O)*)cc21; Lys(N3) = [N-]=[N+]=NCCCC[C@H](N)C(=O)O; Pra = C#CC[C@H](N)C(=O)O

System: bEnd.3/MSC co-culture
Experiment: Transcytosis assay, transwell in vitro BBB model with dex-TexR correction (cPapp)
Assay type: in vitro ADME, mouse
Conditions: apical to basolateral; for fold increase in permeability (cPapp) relative to Tf-A647: bEnd.3/MSC co-culture on polyester transwell inserts (0.4 µm pore), 0.5 µM vehicle with 5 µM dex-TexR (3000 Da), DMEM without FCS after 1 h serum starvation, three inserts with and without culture, paracellular contribution subtracted; for fold increase in permeability (cPapp) relative to Tf-A647 / cPapp at 4 °C: fluorescence read-out; for cPapp at 4 °C: FAM-labelled vehicle co-incubated with dex-TexR, corrected for paracellular diffusion
Text: To study transcytosis potential of the vehicles in vitro we optimised a BBB model using a 3D-transwell format. […] This is similar to results shown by others.[16] Immunostaining for TJ protein ZO-1 in the bEnd.3 cell line confirmed its presence and trafficking towards the cell junctions (Fig. S7 ^†).
It seemed plausible that a similar sized marker (such as TexasRed labelled dextran (dex-TexR; 3000 g mol^–1)) that is incapable of AMT or RMT uptake could serve as an internal standard to quantify paracellular contribution of the vehicles. As exemplified in Fig. 4A, experiments are performed in parallel with probes (both dex-TexR and FAM-PPII vehicle or Tf-A647) fed to insets containing either the cell monolayer (PSt) or filter alone (PSf). The corresponding Papp for dex-TexR in both scenarios is first calculated and the extent in which movement is reduced by presence of the monolayer (defined here as the transport ratio (TR)) is used to determine the expected paracellular diffusion rate of the individual vehicles. We employed Tf-A647 and a similarly sized TexasRed labelled dextran (dex-TexR; 70 000 g mol^–1) as a positive control for transcytosis. […] When incubated in the presence of cells, dex-TexR was detected in the basolateral compartment indicating background paracellular flux. However, Tf-A647 was cleared at a faster rate in comparison, confirming transcytosis of the molecule.
Fig. 4 Modified workflow and results for determining the cPapp of a macromolecule, accounting for contributions made by paracellular diffusion across an in vitro barrier. […] (B–C) Clearance plots obtained by incubation of Tf-A647 or dex-TexR with filters alone (B; PSf) or with cells (C; PSt). […] Division of PSt/PSf for dextran generates the transport ratio (TR). Expected paracellular contribution of the vehicle is obtained by multiplying TR by the Papp of the compound of interest without cells. cPapp values are obtained by subtracting this value from Papp of compound with cells. Key: red = dex-TexR; blue = Tf-A647; dashed lines = filter insert only; solid lines = transwell culture (D) cPapp values for delivery vehicles screened in the transcytosis assay.
(3 × 1 mL), and trypsinisation was conducted using a solution of 0.25 % (w/v) trypsin-EDTA solution (0.5 mL, 3 min, 37 °C, 5 % CO2 incubation), unless otherwise specified. When required, a Scan Speed 1580R centrifuge (Labmode) was used to pellet cell suspensions. All tissue culture work was performed in sterilised Corning well plates, and cell based assays used DMEM media (ThermoFisher, #31053028) without FCS and phenol red, unless otherwise specified. bEND.3 cells were a gift from Rachael Brown (Kings College London), while MSC cells were a gift from the Battaglia group (University College London).
Cells were maintained in high glucose Dulbecco’s Modified Eagle’s Medium (DMEM) (ATCC #30-2002) supplemented with 10 % FCS. Cells were sub-cultured routinely using trypsin solution once 100 % confluence was achieved. For uptake and transcytosis studies, cells under passage number 30 were used. After this time, these cells may begin to lose their barr ier functionality, as identified from an extensive study performed by Brown et al.1 Mesenchymal stem cells (MSC)
MSC, as surrogates for pericytes, were maintained in DMEM/F12 medium containing GlutaMAX and L-glutamine (2 mM) (ThermoFisher, #10565-018), supplemented with 10 % FCS and 5 μg/mL Gentamicin (SIGMA, G1397). Cultures were sub -cultured routinely using trypsin solution once 70 -80 % confluence was achieved.
For all transcytosis assays, polyester filter inserts (Corning, #3460; 0.4 µm pore, 12 mm diameter, 10 µm thick) were used in 12-well cell culture plates. Optimum media volumes were calculated to be 950 µL and 475 µL for apical and basolateral chambers respectively. Both chambers were coated with rat tail collagen (5 µg/cm2) for 2 h at room temperature prior to use. bEND.3 cells were seeded at a density of 2 × 10^4 cells/well onto insets, and grown to […]

Molecule	transcytosis / permeability in BBB model, in words (bEnd.3/MSC transwell, 0.5 µM vehicle, 37 °C, cPapp)	fold increase in permeability (cPapp) relative to Tf-A647 (37 °C)	cPapp at 4 °C (bEnd.3/MSC transwell)
CC(C)C[C@H](NC(=O)[C@H](CCCNC(=N)N)NC(=O)[C@@H](NC(=O)[C@@H]1CCCN1C(=O)[C@@H]1CCCN1C(=O)[C@@H]1CCCN1C(=O)[C@H](Cc1cn(CCCC[C@H](N)C(=O)N[C@H](C(=O)N[C@@H](Cc2ccccc2)C(=O)N[C@@H](Cc2ccccc2)C(=O)N[C@@H](Cc2ccc(O)cc2)C(=O)NCC(=O)NCC(=O)N[C@@H](CO)C(=O)N[C@@H](CCCNC(=N)N)C(=O)NCC(=O)N[C@@H](CCCCN)C(=O)N[C@@H](CCCNC(=N)N)C(=O)N[C@@H](CC(N)=O)C(=O)N[C@@H](CC(N)=O)C(=O)N[C@@H](Cc2ccccc2)C(=O)N[C@@H](CCCCN)C(=O)N[C@H](C(=O)N[C@@H](CCC(=O)O)C(=O)N[C@@H](CCC(=O)O)C(=O)N[C@@H](Cc2ccc(O)cc2)C(N)=O)[C@@H](C)O)[C@@H](C)O)nn1)NC(=O)[C@H](CCCNC(=N)N)NC(=O)[C@@H](NC(=O)c1ccc2c(c1)C(=O)OC21c2ccc(O)cc2Oc2cc(O)ccc21)C(C)C)C(C)C)C(=O)N1CCC[C@H]1C(=O)N1CCC[C@H]1C(=O)N1CCC[C@H]1C(=O)N[C@H](C(=O)N[C@@H](CCCNC(=N)N)C(=O)N[C@@H](Cc1cn(CCCC[C@H](N)C(=O)N[C@H](C(=O)N[C@@H](Cc2ccccc2)C(=O)N[C@@H](Cc2ccccc2)C(=O)N[C@@H](Cc2ccc(O)cc2)C(=O)NCC(=O)NCC(=O)N[C@@H](CO)C(=O)N[C@@H](CCCNC(=N)N)C(=O)NCC(=O)N[C@@H](CCCCN)C(=O)N[C@@H](CCCNC(=N)N)C(=O)N[C@@H](CC(N)=O)C(=O)N[C@@H](CC(N)=O)C(=O)N[C@@H](Cc2ccccc2)C(=O)N[C@@H](CCCCN)C(=O)N[C@H](C(=O)N[C@@H](CCC(=O)O)C(=O)N[C@@H](CCC(=O)O)C(=O)N[C@@H](Cc2ccc(O)cc2)C(N)=O)[C@@H](C)O)[C@@H](C)O)nn1)C(=O)N1CCC[C@H]1C(=O)N1CCC[C@H]1C(=O)N1CCC[C@H]1C(N)=O)C(C)C [PPII(L3X;L15X)APep2]	limited transcytosis		
I: 5FAM-VR[Pra]PPPVRLPPP[Pra]RLPPP-NH2 / II: [Lys(N3)]THRPPMWSPVWP-NH2 / III: [Lys(N3)]THRPPMWSPVWP-NH2 (triazole I:3-III:1, I:13-II:1) [PPII(L3X;V13X)TfRL1]		3.5 fold	
CC[C@H](C)[C@H](NC(=O)[C@H](C)NC(=O)[C@H](Cc1c[nH]cn1)NC(=O)[C@@H](N)CCCCn1cc(C[C@H](NC(=O)[C@@H](NC(=O)[C@@H]2CCCN2C(=O)[C@@H]2CCCN2C(=O)[C@@H]2CCCN2C(=O)[C@H](CC(C)C)NC(=O)[C@H](CCCNC(=N)N)NC(=O)[C@@H](NC(=O)c2ccc3c(c2)C(=O)OC32c3ccc(O)cc3Oc3cc(O)ccc32)C(C)C)C(C)C)C(=O)N[C@@H](CC(C)C)C(=O)N2CCC[C@H]2C(=O)N2CCC[C@H]2C(=O)N2CCC[C@H]2C(=O)N[C@H](C(=O)N[C@@H](CCCNC(=N)N)C(=O)N[C@@H](CC(C)C)C(=O)N2CCC[C@H]2C(=O)N2CCC[C@H]2C(=O)N2CCC[C@H]2C(N)=O)C(C)C)nn1)C(=O)N[C@@H](Cc1ccc(O)cc1)C(=O)N1CCC[C@H]1C(=O)N[C@@H](CCCNC(=N)N)C(=O)N[C@@H](Cc1c[nH]cn1)C(N)=O [PPII(R8X)TfRL2]		1.4 fold	-0.085 cm/min x 10^-5
CC[C@H](C)[C@H](NC(=O)[C@H](C)NC(=O)[C@@H](N)Cc1c[nH]cn1)C(=O)N[C@@H](Cc1ccc(O)cc1)C(=O)N1CCC[C@H]1C(=O)N[C@@H](CCCNC(=N)N)C(=O)N[C@@H](Cc1c[nH]cn1)C(=O)NCCCC[C@H](NC(=O)[C@H](CCCNC(=N)N)NC(=O)[C@@H](NC(=O)[C@@H]1CCCN1C(=O)[C@@H]1CCCN1C(=O)[C@@H]1CCCN1C(=O)[C@H](CC(C)C)NC(=O)[C@H](CCCNC(=N)N)NC(=O)[C@@H](NC(=O)[C@@H]1CCCN1C(=O)[C@@H]1CCCN1C(=O)[C@@H]1CCCN1C(=O)[C@H](Cc1cn(CCCC[C@H](N)C(=O)N[C@H](C(=O)N[C@@H](Cc2ccccc2)C(=O)N[C@@H](Cc2ccccc2)C(=O)N[C@@H](Cc2ccc(O)cc2)C(=O)NCC(=O)NCC(=O)N[C@@H](CO)C(=O)N[C@@H](CCCNC(=N)N)C(=O)NCC(=O)N[C@@H](CCCCN)C(=O)N[C@@H](CCCNC(=N)N)C(=O)N[C@@H](CC(N)=O)C(=O)N[C@@H](CC(N)=O)C(=O)N[C@@H](Cc2ccccc2)C(=O)N[C@@H](CCCCN)C(=O)N[C@H](C(=O)N[C@@H](CCC(=O)O)C(=O)N[C@@H](CCC(=O)O)C(=O)N[C@@H](Cc2ccc(O)cc2)C(N)=O)[C@@H](C)O)[C@@H](C)O)nn1)NC(=O)[C@H](CCCNC(=N)N)NC(=O)[C@@H](NC(=O)c1ccc2c(c1)C(=O)OC21c2ccc(O)cc2Oc2cc(O)ccc21)C(C)C)C(C)C)C(C)C)C(=O)N1CCC[C@H]1C(=O)N1CCC[C@H]1C(=O)N1CCC[C@H]1C(N)=O [PPII(L3X;L15K)TfRL2(K);APep2(X)]		1.8 fold	
CC(C)C[C@H](NC(=O)[C@H](CCCNC(=N)N)NC(=O)[C@@H](NC(=O)[C@@H]1CCCN1C(=O)[C@@H]1CCCN1C(=O)[C@@H]1CCCN1C(=O)[C@H](CC(C)C)NC(=O)[C@H](Cc1cn(CCCC[C@H](N)C(=O)N[C@H](C(=O)N[C@@H](Cc2ccccc2)C(=O)N[C@@H](Cc2ccccc2)C(=O)N[C@@H](Cc2ccc(O)cc2)C(=O)NCC(=O)NCC(=O)N[C@@H](CO)C(=O)N[C@@H](CCCNC(=N)N)C(=O)NCC(=O)N[C@@H](CCCCN)C(=O)N[C@@H](CCCNC(=N)N)C(=O)N[C@@H](CC(N)=O)C(=O)N[C@@H](CC(N)=O)C(=O)N[C@@H](Cc2ccccc2)C(=O)N[C@@H](CCCCN)C(=O)N[C@H](C(=O)N[C@@H](CCC(=O)O)C(=O)N[C@@H](CCC(=O)O)C(=O)N[C@@H](Cc2ccc(O)cc2)C(N)=O)[C@@H](C)O)[C@@H](C)O)nn1)NC(=O)[C@@H](NC(=O)[C@@H]1CCCN1C(=O)[C@@H]1CCCN1C(=O)[C@@H]1CCCN1C(=O)[C@H](CC(C)C)NC(=O)[C@H](CCCNC(=N)N)NC(=O)[C@@H](NC(=O)c1ccc2c(c1)C(=O)OC21c2ccc(O)cc2Oc2cc(O)ccc21)C(C)C)C(C)C)C(C)C)C(=O)N1CCC[C@H]1C(=O)N1CCC[C@H]1C(=O)N1CCC[C@H]1C(N)=O [PPII(R8X)APep2]		4.9 fold	-0.058 cm/min x 10^-5
Tf-A647: human derived AlexaFluor 647-conjugated transferrin [reference compound]			0.09 cm/min x 10^-5
I: 5FAM-VR[Pra]PPPVRLPPPVR[Pra]PPP-NH2 / II: [Lys(N3)]THRPPMWSPVWP-NH2 / III: [Lys(N3)]THRPPMWSPVWP-NH2 (triazole I:3-III:1, I:15-II:1) [PPII(L3X;L15X)TfRL1]		3.0 fold	-0.079 cm/min x 10^-5
